Legend:
hERG channel = hERG channel (Homo sapiens (Human), UniProt Q12809); test: Test 6-1: inhibitory activity for hERG channel (auto patch clamp, Qpatch); type: cell-based; conditions: for IC50: whole cell auto patch clamp, hERG-CHO cells, read-out: hERG inhibition IC50
Outline: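 Whole-cell patch clamp on an automated system using CHO cells stably expressing human hERG (IKr); 15 s pulse interval. Four increasing compound concentrations applied cumulatively; mean peak tail current from last 3 stimulations per concentration used. IC50 from inhibition versus pre-compound current, fitted by Hill equation.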

human 5-HT2A receptor [1] = target: T1, human 5-HT2A receptor (Homo sapiens (Human), UniProt P28223); test: Test 3: antagonist activity for human 5-HT2A receptor (aequorin luminescence, CHO-K1 cells); type: cell-based; conditions: CHO-K1 cells, 1 nmol/L 5-HT
Protocol: Test 3: Evaluation of Antagonist Activity for Human 5-HT2A Receptor
Aequorin, Gα16 protein, and each receptor were transiently expressed in CHO-K1 cells (Chinese hamster ovary). […] Each compound dissolved in DMSO was added thereto, and changes in luminescence were measured by FDSS/μCELL functional drug screening system (Hamamatsu Photonics K.K.). Antagonist activity was calculated from the following formula. Antagonist activity (%)=100×{(Luminescence of well in the presence of 1 nmol/L 5-HT−Luminescence of well containing solvent)−(Luminescence of well in the presence of test compound and 1 nmol/L 5-HT−Luminescence of well containing solvent)}/(Luminescence of well in the presence of 1 nmol/L 5-HT−Luminescence of well containing solvent)

human 5-HT1A receptor [2] = target: T2, human 5-HT1A receptor (Homo sapiens (Human), UniProt P08908); test: Test 2: agonist activity for human 5-HT1A receptor ([35S]GTPγS binding); type: biochemical; conditions: for EC50: [35S]GTPγS binding, concentration at which half the activity of Emax was obtained; for Emax at 10 µM: agonist activity in the presence of 10 μM of compound, relative to 100 μmol/L 5-HT
Outline: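 Membranes from CHO cells expressing human 5-HT1A incubated with compound, GDP-containing buffer and [35S]GTPγS for 60 min at room temperature. Bound radioactivity collected by glass-fibre filtration and counted by liquid scintillation; agonist activity derived from a formula.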

human 5-HT2A receptor [3] = target: T1, human 5-HT2A receptor; test: Test 1: binding activity for human 5-HT2A receptor ([3H]Ketanserin, CHO cell membrane fraction)
Protocol: Test 1: Evaluation of Binding Activity for Human 5-HT1A Receptor, Human 5-HT2A Receptor, and Human D2 Receptor
Binding affinity of the present compound for human 5-HT1A receptor, human 5-HT2A receptor, and human D2 receptor was measured by the following procedures.
Each mixture was incubated at room temperature for 60 minutes. Then, the mixture was added quickly on a glassfiber filter plate (Multiscreen FB, Millipore, Inc.) coated with 0.3% aqueous polyethylenimine, and vacuum-filtered. Radioactivity remaining on the filter was measured with a liquid scintillation counter (PerkinElmer, Inc.). Binding inhibition rate was calculated from the following formula.
Ki of each compound was calculated from the following formula. Binding inhibition constant (Ki)=IC50/(1+S/Kd) wherein S is concentration of ligand; Kd is a binding dissociation constant of ligand to membrane, which is calculated from a saturated binding experiment conducted with the same cell membrane. A small Ki value means strong binding ability to a receptor.

human D2 receptor = human D2 receptor (Homo sapiens (Human), UniProt P14416); test: Test 1: binding activity for human D2 receptor ([3H]Spiperone, CHO cell membrane fraction); conditions: for Ki: human D2 receptor, [3H]Spiperone; for D2 Ki/5-HT1A Ki / D2 Ki/5-HT2A Ki: selectivity ratio
Outline: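 CHO-cell membranes with [3H]ketanserin (5-HT2A) or [3H]spiperone (D2) were incubated with compound for 60 min at room temperature, then filtered, and bound radioactivity was counted by scintillation. Ki = IC50/(1+S/Kd), with ligand Kd from saturation binding on the same membranes.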

human 5-HT1A receptor [4] = target: T2, human 5-HT1A receptor; test: Test 1: binding activity for human 5-HT1A receptor ([3H]8-OH-DPAT, CHO cell membrane fraction)
Outline: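 Membranes incubated with [3H]8-OH-DPAT and compound for 60 min at room temperature, then filtered on polyethylenimine-coated glass-fibre plates and counted by liquid scintillation. IC50 from Hill analysis; Ki = IC50/(1+S/Kd), Kd from saturation binding on the same membranes.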

[5] = Test 4: metabolic stability test in human hepatic microsome; type: in vitro ADME; conditions: 0.1 mg/mL microsome, 0.1 μmol/L compound, 37° C., 30 minutes
Outline: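 Compound at 0.1 μmol/L incubated 30 min at 37° C with human liver microsomes (0.1 mg/mL) and NADPH (3.2 mmol/L) in 25 mmol/L phosphate buffer, pH 7.4. Residual compound measured by LC-MS; stability (mL/min/mg protein) = −LN(residual ratio)/30/0.1.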

T2 sequence (P08908 whole entry): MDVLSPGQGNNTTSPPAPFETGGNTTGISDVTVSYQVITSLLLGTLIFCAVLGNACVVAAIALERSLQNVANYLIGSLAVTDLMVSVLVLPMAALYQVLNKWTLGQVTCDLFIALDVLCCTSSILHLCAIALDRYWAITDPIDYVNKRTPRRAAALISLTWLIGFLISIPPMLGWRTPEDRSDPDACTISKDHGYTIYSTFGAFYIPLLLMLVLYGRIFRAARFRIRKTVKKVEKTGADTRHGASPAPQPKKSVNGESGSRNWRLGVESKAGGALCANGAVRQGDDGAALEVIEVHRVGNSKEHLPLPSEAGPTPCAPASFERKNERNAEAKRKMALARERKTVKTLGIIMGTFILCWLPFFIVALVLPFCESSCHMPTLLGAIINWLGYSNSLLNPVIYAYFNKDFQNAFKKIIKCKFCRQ
hERG channel, sequence (Q12809 whole entry): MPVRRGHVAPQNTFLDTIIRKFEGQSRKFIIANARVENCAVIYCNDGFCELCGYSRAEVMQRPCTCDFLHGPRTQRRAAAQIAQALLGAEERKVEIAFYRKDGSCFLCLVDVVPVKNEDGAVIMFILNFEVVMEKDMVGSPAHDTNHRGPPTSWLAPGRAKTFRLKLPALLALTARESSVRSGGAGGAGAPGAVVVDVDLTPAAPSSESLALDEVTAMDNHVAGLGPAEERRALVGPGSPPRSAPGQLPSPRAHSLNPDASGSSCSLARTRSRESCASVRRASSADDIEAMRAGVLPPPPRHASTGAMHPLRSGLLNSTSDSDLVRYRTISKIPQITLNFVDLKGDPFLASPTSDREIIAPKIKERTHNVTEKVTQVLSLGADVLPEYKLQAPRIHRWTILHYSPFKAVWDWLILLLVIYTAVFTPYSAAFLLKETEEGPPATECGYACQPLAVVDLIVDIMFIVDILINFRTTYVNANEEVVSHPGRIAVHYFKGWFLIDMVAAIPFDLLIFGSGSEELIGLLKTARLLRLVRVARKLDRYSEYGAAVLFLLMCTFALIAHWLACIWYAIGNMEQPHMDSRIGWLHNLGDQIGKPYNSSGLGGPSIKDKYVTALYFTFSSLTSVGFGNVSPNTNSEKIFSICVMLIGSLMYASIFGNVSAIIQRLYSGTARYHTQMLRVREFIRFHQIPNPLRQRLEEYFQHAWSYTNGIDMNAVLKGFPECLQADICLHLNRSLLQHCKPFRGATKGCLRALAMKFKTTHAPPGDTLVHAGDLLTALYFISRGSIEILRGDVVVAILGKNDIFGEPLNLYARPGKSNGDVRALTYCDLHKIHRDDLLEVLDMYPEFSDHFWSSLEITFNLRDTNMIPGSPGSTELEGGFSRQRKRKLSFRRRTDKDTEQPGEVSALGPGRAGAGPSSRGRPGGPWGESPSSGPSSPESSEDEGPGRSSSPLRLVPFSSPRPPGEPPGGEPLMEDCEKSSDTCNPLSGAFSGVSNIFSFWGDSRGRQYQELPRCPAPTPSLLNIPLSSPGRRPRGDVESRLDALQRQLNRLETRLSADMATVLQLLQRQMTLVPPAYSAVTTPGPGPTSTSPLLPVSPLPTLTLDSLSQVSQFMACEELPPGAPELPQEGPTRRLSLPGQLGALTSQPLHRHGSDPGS
T1 sequence (P28223 whole entry): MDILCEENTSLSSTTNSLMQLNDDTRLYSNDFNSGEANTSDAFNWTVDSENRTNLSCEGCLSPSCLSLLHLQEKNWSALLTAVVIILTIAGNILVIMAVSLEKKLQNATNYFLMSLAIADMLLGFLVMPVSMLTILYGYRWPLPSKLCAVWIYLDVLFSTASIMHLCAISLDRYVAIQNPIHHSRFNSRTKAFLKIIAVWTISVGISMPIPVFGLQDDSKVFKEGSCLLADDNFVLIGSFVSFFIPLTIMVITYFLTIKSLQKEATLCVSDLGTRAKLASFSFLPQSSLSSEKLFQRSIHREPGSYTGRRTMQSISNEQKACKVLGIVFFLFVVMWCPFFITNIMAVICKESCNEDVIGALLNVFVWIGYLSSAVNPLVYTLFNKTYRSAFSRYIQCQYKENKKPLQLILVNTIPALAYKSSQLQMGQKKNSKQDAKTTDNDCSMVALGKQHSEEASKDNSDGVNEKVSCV
human D2 receptor, sequence (P14416 whole entry): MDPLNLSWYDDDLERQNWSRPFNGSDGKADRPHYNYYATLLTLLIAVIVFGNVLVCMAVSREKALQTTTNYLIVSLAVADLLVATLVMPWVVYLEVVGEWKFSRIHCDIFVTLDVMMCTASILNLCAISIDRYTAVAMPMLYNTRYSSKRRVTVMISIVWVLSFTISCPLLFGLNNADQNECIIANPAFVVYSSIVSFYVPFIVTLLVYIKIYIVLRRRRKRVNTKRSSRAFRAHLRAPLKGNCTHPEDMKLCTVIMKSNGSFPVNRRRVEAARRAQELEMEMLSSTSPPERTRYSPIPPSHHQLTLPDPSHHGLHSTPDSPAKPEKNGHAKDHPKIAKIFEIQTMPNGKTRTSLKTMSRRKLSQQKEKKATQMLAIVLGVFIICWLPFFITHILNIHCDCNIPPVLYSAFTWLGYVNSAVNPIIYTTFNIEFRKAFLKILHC

**Q.** Which “hERG inhibition IC50 (nmol/L)/5-HT1A Ki (nmol/L)” value (hERG channel; ratio of hERG IC50 to 5-HT1A Ki) does the source give for `Cn1cnc2c1CCCN(CCN1CCC(c3noc4ccccc34)CC1)C2=O` [Example 101, 5-{2-[4-(1,2-Benzoisoxazol-3-yl)piperidin-1-yl]ethyl}-1-methyl-5,6,7,8-tetrahydroimidazo[4,5-c]azepin-4(1H)-one] here?
**A.** The value was 68.

**Q.** What about the “hERG inhibition IC50 (nmol/L)/5-HT2A Ki (nmol/L)” value (hERG channel; ratio of hERG IC50 to 5-HT2A Ki) of the same compound?
**A.** Its value is 2165.

**Q.** What about the IC50 (hERG channel) of the same compound?
**A.** Its IC50 is 4.1 µM.

**Q.** And the IC50 (human 5-HT2A receptor [1])?
**A.** The IC50 was 0.046 µM.

**Q.** And the EC50 (human 5-HT1A receptor [2])?
**A.** Its EC50 is 0.612 µM.

**Q.** And the Emax at 10 µM (human 5-HT1A receptor [2])?
**A.** The Emax at 10 µM was 47%.

**Q.** What about the Ki (human 5-HT2A receptor [3]) of the same compound?
**A.** The Ki was 0.0019 µM.

**Q.** What about the Ki (human D2 receptor) of the same compound?
**A.** The Ki was 1.02 µM.

**Q.** And the “D2 Ki/5-HT1A Ki” value (human D2 receptor)?
**A.** The value was 17.

**Q.** What about the “D2 Ki/5-HT2A Ki” value (human D2 receptor) of the same compound?
**A.** The value was 538.

**Q.** What about the Ki (human 5-HT1A receptor [4]) of the same compound?
**A.** Its Ki is 0.0601 µM.

**Q.** What does the source list for `O=c1c2cncnc2ccn1CCN1CCC(c2noc3ccccc23)CC1` [Example 129]?
**A.** Metabolic stability in human hepatic microsome [5]: 0.084 mL/min/mg protein; IC50 (human 5-HT2A receptor [1]; aequorin luminescence): 0.0618 µM; EC50 (human 5-HT1A receptor [2]): 0.37 µM; Emax at 10 µM (human 5-HT1A receptor [2]): 31%; Ki (human 5-HT2A receptor [3]): 0.02 µM; Ki (human 5-HT1A receptor [4]): 0.0514 µM

**Q.** What does the source list for `Cn1ncc2c1C(=O)N(CCN1CCN(c3nsc4ccccc34)CC1)CCC2` [Example 47]?
**A.** IC50 (hERG channel): 4 µM; Metabolic stability in human hepatic microsome [5]: 0.418 mL/min/mg protein; IC50 (human 5-HT2A receptor [1]): 0.00496 µM; EC50 (human 5-HT1A receptor [2]): 0.0922 µM; Emax at 10 µM (human 5-HT1A receptor [2]): 65%; Ki (human 5-HT2A receptor [3]): 0.0179 µM; Ki (human 5-HT1A receptor [4]): 0.0169 µM

**Q.** With `COc1ccc2onc(C3CCN(CCN4CCc5cccnc5C4=O)CC3)c2c1` [Example 142] as the compound, how does the IC50 (human 5-HT2A receptor [1]; aequorin luminescence) read?
**A.** Its IC50 is 3.91 µM.

**Q.** What about the EC50 (human 5-HT1A receptor [2]) of the same compound?
**A.** The EC50 was 0.0088 µM.

**Q.** What about the Emax at 10 µM (human 5-HT1A receptor [2]) of the same compound?
**A.** The Emax at 10 µM was 54%.

**Q.** And the Ki (human 5-HT2A receptor [3])?
**A.** The Ki was 0.164 µM.

**Q.** What about the Ki (human D2 receptor) of the same compound?
**A.** The Ki was greater than 10 µM.

**Q.** What about the “D2 Ki/5-HT1A Ki” value (human D2 receptor) of the same compound?
**A.** The value was greater than 5452.0.

**Q.** And the “D2 Ki/5-HT2A Ki” value (human D2 receptor)?
**A.** Its value is greater than 61.0.

**Q.** And the Ki (human 5-HT1A receptor [4])?
**A.** Its Ki is 0.00183 µM.

**Q.** Which results are given for `Cn1cnc2c1C(=O)N(CCN1CCN(c3nsc4ccccc34)CC1)CC2` [Example 56]?
**A.** IC50 (hERG channel): 7.6 µM; Metabolic stability in human hepatic microsome [5]: 0.195 mL/min/mg protein; IC50 (human 5-HT2A receptor [1]): 0.006 µM; EC50 (human 5-HT1A receptor [2]): 0.0666 µM; Emax at 10 µM (human 5-HT1A receptor [2]): 58%; Ki (human 5-HT2A receptor [3]): 0.00011 µM; Ki (human 5-HT1A receptor [4]): 0.078 µM

**Q.** Which results are given for `O=C1c2ncccc2CCN1CCN1CCC(c2noc3cccc(F)c23)CC1` [Example 141]?
**A.** IC50 (human 5-HT2A receptor [1]; aequorin luminescence): 0.976 µM; EC50 (human 5-HT1A receptor [2]): 0.03 µM; Emax at 10 µM (human 5-HT1A receptor [2]): 44%; Ki (human 5-HT2A receptor [3]): 0.173 µM; Ki (human D2 receptor): > 10 µM; D2 Ki/5-HT1A Ki (human D2 receptor): >2405.7; D2 Ki/5-HT2A Ki (human D2 receptor): >57.8; Ki (human 5-HT1A receptor [4]): 0.00416 µM

**Q.** Which results are given for `O=C1c2ncccc2CCN1CCN1CCN(c2noc3ccc(F)cc23)CC1` [Example 147]?
**A.** IC50 (human 5-HT2A receptor [1]; aequorin luminescence): 0.415 µM; EC50 (human 5-HT1A receptor [2]): 0.436 µM; Ki (human 5-HT2A receptor [3]): 0.124 µM; Ki (human D2 receptor): > 10 µM; Ki (human 5-HT1A receptor [4]): 0.124 µM

**Q.** What does the source list for `Cc1noc2c1C(=O)N(CCN1CCN(c3noc4ccccc34)CC1)CC2` [Example 32, 5-{2-[4-(1,2-Benzoisoxazol-3-yl)piperazin-1-yl]ethyl}-3-methyl-6,7-dihydro[1,2]oxazolo[4,5-c]pyridin-4(5H)-one]?
**A.** IC50 (hERG channel): 5.5 µM; Metabolic stability in human hepatic microsome [5]: <0.01 mL/min/mg protein; IC50 (human 5-HT2A receptor [1]): 0.095 µM; EC50 (human 5-HT1A receptor [2]): 0.644 µM; Emax at 10 µM (human 5-HT1A receptor [2]): 39%; Ki (human 5-HT2A receptor [3]): 0.06 µM; Ki (human 5-HT1A receptor [4]): 0.124 µM

**Q.** What does the source list for `O=C1c2ncccc2CCN1CCN1CCN(c2noc3ccccc23)CC1` [Example 1, 7-{2-[4-(1,2-Benzoisoxazol-3-yl)piperazin-1-yl]ethyl}-6,7-dihydro-1,7-naphthyridin-8(5H)-one]?
**A.** IC50 (hERG channel): > 10 µM; Metabolic stability in human hepatic microsome [5]: <0.01 mL/min/mg protein; IC50 (human 5-HT2A receptor [1]): 0.0446 µM; EC50 (human 5-HT1A receptor [2]): 0.0947 µM; Emax at 10 µM (human 5-HT1A receptor [2]): 50%; Ki (human 5-HT2A receptor [3]): 0.049 µM; Ki (human 5-HT1A receptor [4]): 0.0215 µM

**Q.** For `COc1ccc2c(C3CCN(CCN4CCc5cccnc5C4=O)CC3)noc2c1` [Example 149], which IC50 (human 5-HT2A receptor [1]; aequorin luminescence) is on record?
**A.** The IC50 was 0.267 µM.

**Q.** What about the EC50 (human 5-HT1A receptor [2]) of the same compound?
**A.** The EC50 was 0.719 µM.

**Q.** What about the Emax at 10 µM (human 5-HT1A receptor [2]) of the same compound?
**A.** The Emax at 10 µM was 16%.

**Q.** What about the Ki (human 5-HT2A receptor [3]) of the same compound?
**A.** Its Ki is 0.217 µM.

**Q.** And the Ki (human D2 receptor)?
**A.** Its Ki is greater than 10 µM.

**Q.** What about the “D2 Ki/5-HT1A Ki” value (human D2 receptor) of the same compound?
**A.** The value was greater than 54.3.

**Q.** What about the “D2 Ki/5-HT2A Ki” value (human D2 receptor) of the same compound?
**A.** The value was greater than 46.1.

**Q.** What about the Ki (human 5-HT1A receptor [4]) of the same compound?
**A.** Its Ki is 0.184 µM.

— US10745401B2, “Condensed lactam derivative” (Sumitomo Dainippon Pharma Co., Ltd., priority 2018, dated 2020)
